Measured values as given in ChEMBL document CHEMBL4616724, “Topoisomerase Inhibitors Addressing Fluoroquinolone Resistance in Gram-Negative Bacteria” (J Med Chem, 2020).
Converted amounts (≈) assume the structure as drawn.

Tested on: Escherichia coli
Test: Antibacterial activity against wild type Escherichia coli ATCC 25922 at pH 7.4 by CLSI-based broth microdilution assay
Type: functional

SMILES	MIC
Cc1c(N2CC[C@@H]([C@H](C)N)C2)c(F)cc2c(C#N)cc(=O)n(C3CC3)c12	1 µg/mL (≈ 2.82 µM)
Cc1c(N2CC3CC3(N)C2)c(F)cc2c(CN)c(Cl)c(=O)n(C3CC3)c12 (configuration not stated)	0.25 µg/mL (≈ 0.663 µM)
N#Cc1c(N2CC3CC3(N)C2)c(F)cc2c(CN)cc(=O)n(C3CC3)c12 (configuration not stated)	1 µg/mL (≈ 2.83 µM)
Cc1c(N2CC3CC3(CN)C2)c(F)cc2c(CN)cc(=O)n(C3CC3)c12 (racemic)	8 µg/mL (≈ 22.4 µM)
Cc1c(N2CC[C@H](O)C2)c(F)cc2c(CN)cc(=O)n(C3CC3)c12	0.5 µg/mL (≈ 1.51 µM)
Cc1c(N2CCCC2)c(F)cc2c(CN)cc(=O)n(C3CC3)c12	1 µg/mL (≈ 3.17 µM)
COc1cc(=O)n(C2CC2)c2c(C)c(N3CC[C@@H]([C@H](C)N)C3)c(F)cc12	32 µg/mL (≈ 89 µM)
Cc1c(N2CC[C@@H]([C@H](C)N)C2)c(F)cc2c(-c3n[nH]c(=O)o3)cc(=O)n(C3CC3)c12	8 µg/mL (≈ 19.3 µM)
COc1c(N2CC3(C)CC3(N)C2)c(F)cc2c(CN)cc(=O)n(C3CC3)c12 (configuration not stated)	1 µg/mL (≈ 2.68 µM)
Cc1c(N2CC[C@@H]([C@H](C)N)C2)c(F)cc2c(Cl)cc(=O)n(C3CC3)c12	2 µg/mL (≈ 5.5 µM)
Cc1c(N2C[C@@H]3[C@@H](N)[C@@H]3C2)c(F)cc2c(CN)cc(=O)n(C3CC3)c12	1 µg/mL (≈ 2.92 µM)

Tested on: Pseudomonas aeruginosa
Test: Antibacterial activity against wild type Pseudomonas aeruginosa PAO1 K767 by CLSI-based broth microdilution assay
Type: functional

SMILES	MIC
Cc1c(N2CC[C@@H]([C@H](C)N)C2)c(F)cc2c(C#N)cc(=O)n(C3CC3)c12	4 µg/mL (≈ 11.3 µM)
Cc1c(N2CC3CC3(N)C2)c(F)cc2c(CN)c(Cl)c(=O)n(C3CC3)c12 (configuration not stated)	8 µg/mL (≈ 21.2 µM)
N#Cc1c(N2CC3CC3(N)C2)c(F)cc2c(CN)cc(=O)n(C3CC3)c12 (configuration not stated)	16 µg/mL (≈ 45.3 µM)
Cc1c(N2CC3CC3(CN)C2)c(F)cc2c(CN)cc(=O)n(C3CC3)c12 (racemic)	32 µg/mL (≈ 89.8 µM)
Cc1c(N2CC[C@H](O)C2)c(F)cc2c(CN)cc(=O)n(C3CC3)c12	4 µg/mL (≈ 12.1 µM)
Cc1c(N2CCCC2)c(F)cc2c(CN)cc(=O)n(C3CC3)c12	32 µg/mL (≈ 101 µM)
COc1cc(=O)n(C2CC2)c2c(C)c(N3CC[C@@H]([C@H](C)N)C3)c(F)cc12	32 µg/mL (≈ 89 µM)
Cc1c(N2CC[C@@H]([C@H](C)N)C2)c(F)cc2c(-c3n[nH]c(=O)o3)cc(=O)n(C3CC3)c12	> 32 µg/mL
COc1c(N2CC3(C)CC3(N)C2)c(F)cc2c(CN)cc(=O)n(C3CC3)c12 (configuration not stated)	32 µg/mL (≈ 85.9 µM)
Cc1c(N2CC[C@@H]([C@H](C)N)C2)c(F)cc2c(Cl)cc(=O)n(C3CC3)c12	8 µg/mL (≈ 22 µM)
Cc1c(N2C[C@@H]3[C@@H](N)[C@@H]3C2)c(F)cc2c(CN)cc(=O)n(C3CC3)c12	16 µg/mL (≈ 46.7 µM)

Tested on: Klebsiella pneumoniae
Test: Antibacterial activity against wild type Klebsiella pneumoniae ATCC 43816 by CLSI-based broth microdilution assay
Type: functional

SMILES	MIC
Cc1c(N2CC[C@@H]([C@H](C)N)C2)c(F)cc2c(C#N)cc(=O)n(C3CC3)c12	2 µg/mL (≈ 5.64 µM)
Cc1c(N2CC3CC3(N)C2)c(F)cc2c(CN)c(Cl)c(=O)n(C3CC3)c12 (configuration not stated)	0.5 µg/mL (≈ 1.33 µM)
N#Cc1c(N2CC3CC3(N)C2)c(F)cc2c(CN)cc(=O)n(C3CC3)c12 (configuration not stated)	2 µg/mL (≈ 5.66 µM)
Cc1c(N2CC3CC3(CN)C2)c(F)cc2c(CN)cc(=O)n(C3CC3)c12 (racemic)	32 µg/mL (≈ 89.8 µM)
Cc1c(N2CC[C@H](O)C2)c(F)cc2c(CN)cc(=O)n(C3CC3)c12	1 µg/mL (≈ 3.02 µM)
Cc1c(N2CCCC2)c(F)cc2c(CN)cc(=O)n(C3CC3)c12	2 µg/mL (≈ 6.34 µM)
COc1cc(=O)n(C2CC2)c2c(C)c(N3CC[C@@H]([C@H](C)N)C3)c(F)cc12	16 µg/mL (≈ 44.5 µM)
Cc1c(N2CC[C@@H]([C@H](C)N)C2)c(F)cc2c(-c3n[nH]c(=O)o3)cc(=O)n(C3CC3)c12	32 µg/mL (≈ 77.4 µM)
COc1c(N2CC3(C)CC3(N)C2)c(F)cc2c(CN)cc(=O)n(C3CC3)c12 (configuration not stated)	4 µg/mL (≈ 10.7 µM)
Cc1c(N2CC[C@@H]([C@H](C)N)C2)c(F)cc2c(Cl)cc(=O)n(C3CC3)c12	4 µg/mL (≈ 11 µM)
Cc1c(N2C[C@@H]3[C@@H](N)[C@@H]3C2)c(F)cc2c(CN)cc(=O)n(C3CC3)c12	4 µg/mL (≈ 11.7 µM)

Tested on: Pseudomonas aeruginosa
Test: Antibacterial activity against Pseudomonas aeruginosa K1542/K767 harboring MexB/MexXY deletion mutant by CLSI-based broth microdilution assay
Type: functional

SMILES	MIC
Cc1c(N2CC[C@@H]([C@H](C)N)C2)c(F)cc2c(C#N)cc(=O)n(C3CC3)c12	1 µg/mL (≈ 2.82 µM)
Cc1c(N2CC3CC3(N)C2)c(F)cc2c(CN)c(Cl)c(=O)n(C3CC3)c12 (configuration not stated)	1 µg/mL (≈ 2.65 µM)
N#Cc1c(N2CC3CC3(N)C2)c(F)cc2c(CN)cc(=O)n(C3CC3)c12 (configuration not stated)	2 µg/mL (≈ 5.66 µM)
Cc1c(N2CC3CC3(CN)C2)c(F)cc2c(CN)cc(=O)n(C3CC3)c12 (racemic)	4 µg/mL (≈ 11.2 µM)
Cc1c(N2CC[C@H](O)C2)c(F)cc2c(CN)cc(=O)n(C3CC3)c12	0.25 µg/mL (≈ 0.754 µM)
Cc1c(N2CCCC2)c(F)cc2c(CN)cc(=O)n(C3CC3)c12	4 µg/mL (≈ 12.7 µM)
COc1cc(=O)n(C2CC2)c2c(C)c(N3CC[C@@H]([C@H](C)N)C3)c(F)cc12	8 µg/mL (≈ 22.3 µM)
Cc1c(N2CC[C@@H]([C@H](C)N)C2)c(F)cc2c(-c3n[nH]c(=O)o3)cc(=O)n(C3CC3)c12	8 µg/mL (≈ 19.3 µM)
COc1c(N2CC3(C)CC3(N)C2)c(F)cc2c(CN)cc(=O)n(C3CC3)c12 (configuration not stated)	8 µg/mL (≈ 21.5 µM)
Cc1c(N2CC[C@@H]([C@H](C)N)C2)c(F)cc2c(Cl)cc(=O)n(C3CC3)c12	4 µg/mL (≈ 11 µM)
Cc1c(N2C[C@@H]3[C@@H](N)[C@@H]3C2)c(F)cc2c(CN)cc(=O)n(C3CC3)c12	1 µg/mL (≈ 2.92 µM)

Tested on: Pseudomonas aeruginosa
Test: Antibacterial activity against Pseudomonas aeruginosa NB52023 harboring gyrA T83I mutant/ParC S87L mutant by CLSI-based broth microdilution assay
Type: functional

SMILES	MIC
Cc1c(N2CC[C@@H]([C@H](C)N)C2)c(F)cc2c(C#N)cc(=O)n(C3CC3)c12	1 µg/mL (≈ 2.82 µM)
Cc1c(N2CC3CC3(N)C2)c(F)cc2c(CN)c(Cl)c(=O)n(C3CC3)c12 (configuration not stated)	2 µg/mL (≈ 5.31 µM)
N#Cc1c(N2CC3CC3(N)C2)c(F)cc2c(CN)cc(=O)n(C3CC3)c12 (configuration not stated)	4 µg/mL (≈ 11.3 µM)
Cc1c(N2CC3CC3(CN)C2)c(F)cc2c(CN)cc(=O)n(C3CC3)c12 (racemic)	16 µg/mL (≈ 44.9 µM)
Cc1c(N2CC[C@H](O)C2)c(F)cc2c(CN)cc(=O)n(C3CC3)c12	1 µg/mL (≈ 3.02 µM)
Cc1c(N2CCCC2)c(F)cc2c(CN)cc(=O)n(C3CC3)c12	8 µg/mL (≈ 25.4 µM)
COc1cc(=O)n(C2CC2)c2c(C)c(N3CC[C@@H]([C@H](C)N)C3)c(F)cc12	16 µg/mL (≈ 44.5 µM)
Cc1c(N2CC[C@@H]([C@H](C)N)C2)c(F)cc2c(-c3n[nH]c(=O)o3)cc(=O)n(C3CC3)c12	32 µg/mL (≈ 77.4 µM)
COc1c(N2CC3(C)CC3(N)C2)c(F)cc2c(CN)cc(=O)n(C3CC3)c12 (configuration not stated)	16 µg/mL (≈ 43 µM)
Cc1c(N2CC[C@@H]([C@H](C)N)C2)c(F)cc2c(Cl)cc(=O)n(C3CC3)c12	8 µg/mL (≈ 22 µM)
Cc1c(N2C[C@@H]3[C@@H](N)[C@@H]3C2)c(F)cc2c(CN)cc(=O)n(C3CC3)c12	2 µg/mL (≈ 5.84 µM)

Tested on: Escherichia coli
Test: Antibacterial activity against Escherichia coli BW25113/JW0451-2 harboring AcrB deletion mutant by CLSI-based broth microdilution assay
Type: functional

SMILES	MIC
Cc1c(N2CC[C@@H]([C@H](C)N)C2)c(F)cc2c(C#N)cc(=O)n(C3CC3)c12	≤ 0.03 µg/mL
Cc1c(N2CC3CC3(N)C2)c(F)cc2c(CN)c(Cl)c(=O)n(C3CC3)c12 (configuration not stated)	0.06 µg/mL (≈ 0.159 µM)
N#Cc1c(N2CC3CC3(N)C2)c(F)cc2c(CN)cc(=O)n(C3CC3)c12 (configuration not stated)	0.125 µg/mL (≈ 0.354 µM)
Cc1c(N2CC3CC3(CN)C2)c(F)cc2c(CN)cc(=O)n(C3CC3)c12 (racemic)	1 µg/mL (≈ 2.81 µM)
Cc1c(N2CC[C@H](O)C2)c(F)cc2c(CN)cc(=O)n(C3CC3)c12	≤ 0.03 µg/mL
Cc1c(N2CCCC2)c(F)cc2c(CN)cc(=O)n(C3CC3)c12	0.06 µg/mL (≈ 0.19 µM)
COc1cc(=O)n(C2CC2)c2c(C)c(N3CC[C@@H]([C@H](C)N)C3)c(F)cc12	1 µg/mL (≈ 2.78 µM)
COc1c(N2CC3(C)CC3(N)C2)c(F)cc2c(CN)cc(=O)n(C3CC3)c12 (configuration not stated)	0.25 µg/mL (≈ 0.671 µM)
Cc1c(N2CC[C@@H]([C@H](C)N)C2)c(F)cc2c(Cl)cc(=O)n(C3CC3)c12	0.06 µg/mL (≈ 0.165 µM)
Cc1c(N2C[C@@H]3[C@@H](N)[C@@H]3C2)c(F)cc2c(CN)cc(=O)n(C3CC3)c12	0.25 µg/mL (≈ 0.73 µM)

Tested on: Escherichia coli
Test: Antibacterial activity against wild type Escherichia coli ATCC 25922 at pH 5.8 by CLSI-based broth microdilution assay
Type: functional

SMILES	MIC
Cc1c(N2CC[C@H](O)C2)c(F)cc2c(CN)cc(=O)n(C3CC3)c12	8 µg/mL (≈ 24.1 µM)

Tested on: Escherichia coli
Test: Ratio of MIC for antibacterial activity against wild type Escherichia coli ATCC 25922 at pH 5.8 to MIC for antibacterial activity against wild type Escherichia coli ATCC 25922 at pH 7.4
Type: functional

SMILES	Ratio
Cc1c(N2CC[C@H](O)C2)c(F)cc2c(CN)cc(=O)n(C3CC3)c12	16
